These results are taken from US4200575A, “7[(2-Thiazolyl)-2-(oxoimino)acetamido]cephalosporin derivatives” (Takeda Chemical Industries, Ltd., priority 1977, dated 1980).

What all share (assay): Minimal inhibitory concentration (M.I.C.), agar dilution method
Common to all, as to details: TSA, inoculum 10^7 /ml
Background: In agar dilution, organisms are placed on agar that contains the substance at set levels.

In one experiment the test system is S. aureus 1840. It is filed as cell-based, Staphylococcus aureus. An excerpt:
(§1) (a) Determination of minimal inhibitory concentrations (Tables 1 to 8):
(§2) Procedure: agar dilution method

Another experiment concerns S. aureus 209P. It is filed as cell-based, Staphylococcus aureus.
From the text: as §1, §2

The test system of another experiment is E. coli NIHJ JC-2. Format: cell-based, Escherichia coli.
From the text: as §1, §2

A further experiment has as its system E. coli T-7. It is filed as cell-based, Escherichia coli.
From the text: as §1, §2

Another experiment deals with E. coli 0-111. Format: cell-based, Escherichia coli.
From the text: The minimal inhibitory concentrations (M.I.C.) of some representative cephalosporin derivatives of this invention as produced by the procedures described in those examples and the minimal inhibitory concentrations of cephalothin [sodium 7-(2-thienylacetamido)-3-acetoxymethyl-3-cephem-4-carboxylate], cephaloridine [7-(2-thienylacetamido)-3-(1-pyridyl)methyl-3-cephem-4-carboxylic acid betaine] and cefazolin [sodium 7-(1H-tetrazol-1-yl)acetamido-3-(2-methyl-1,3,4-thiadiazol-5-yl)thiomethyl-3-cephem-4-carboxylate], which are among the clinically established and commercially available cephalosporins (as described, for example, in the New England Journal of Medicine 294, 24, 1976 and Journal of Pharmaceutical Science 64, 1899, 1975), both against various bacteria, as well as the therapeutic effects of some respresentative cephalosporin derivatives of this invention and of cephaloridine in infected mice, are shown in tables.
as §1, §2

The test system of a further experiment is K. pneumoniae DT. It is filed as cell-based, Klebsiella pneumoniae.
From the text: as §1, §2

A further experiment has as its system K. pneumoniae GN 3835. It is filed as cell-based, Klebsiella pneumoniae.
From the text: as §1, §2

The next experiment deals with S. marcescens IFO 12648. It is filed as cell-based, Serratia marcescens.
From the text: as §1, §2

In another experiment the test system is S. marcescens TN 24. Format: cell-based, Serratia marcescens.
From the text: as §1, §2

For a further experiment, the system named is P. vulgaris GN 4413. It is filed as cell-based, Proteus vulgaris.
From the text: as §1, §2

The test system of a further experiment is P. vulgaris IFO 3988. It is filed as cell-based, Proteus vulgaris.
From the text: as §1, §2

The subject of a further experiment is P. mirabilis GN 4359. Format: cell-based, Proteus mirabilis.
From the text: as §1, §2

The next experiment concerns P. morganii IFO 3168. Format: cell-based, Proteus morganii.
From the text: as §1, §2

The subject of a further experiment is P. rettgeri GN4733. It is filed as cell-based, Proteus rettgeri.
From the text: as §1, §2

Another experiment deals with P. rettgeri TN 338. Format: cell-based, Proteus rettgeri.
From the text: as §1, §2

The test system of the next experiment is E. cloacae TN 1282. It is filed as cell-based, Enterobacter cloacae.
From the text: as §1, §2

In a further experiment the test system is C. freundii GN 1706. Format: cell-based, Citrobacter freundii.
From the text: as §1, §2

A further experiment deals with C. freundii GN 99. Format: cell-based, Citrobacter freundii.
From the text: as §1, §2

On to `CCCNC(=O)O/N=C(\C(=O)NC1C(=O)N2C(C(=O)O)=C(COC(C)=O)CSC12)c1csc(=N)[nH]1` (stereo not drawn) [Example II - 12], for which the “minimal inhibitory concentration (M.I.C.)” value in the experiment with S. aureus 1840 was 1.56; in the experiment on S. aureus 209P, 1.56; with E. coli NIHJ JC-2, 0.39; in the experiment on E. coli T-7 it was 3.13; with E. coli 0-111 it was 0.024; in the experiment on K. pneumoniae DT, 0.1. The “minimal inhibitory concentration (M.I.C.)” value with K. pneumoniae GN 3835 amounted to 0.39; with S. marcescens IFO 12648, 6.25; in the experiment with S. marcescens TN 24 it was 12.5; in the experiment with P. vulgaris GN 4413, 12.5; in the experiment with P. vulgaris IFO 3988, 0.39; in the experiment with P. mirabilis GN 4359, 0.1. In addition, the “minimal inhibitory concentration (M.I.C.)” value is recorded as 0.78 with P. morganii IFO 3168; 0.2 with P. rettgeri GN4733; ≤ 0.012 in the experiment on P. rettgeri TN 338; 6.25 with E. cloacae TN 1282; 0.78 in the experiment on C. freundii GN 1706; 0.39 with C. freundii GN 99.

Take `CCCNC(=O)O/N=C(\C(=O)NC1C(=O)N2C(C(=O)O)=C(COC(N)=O)CSC12)c1csc(=N)[nH]1` (stereo not drawn) [Example II - 13]: the “minimal inhibitory concentration (M.I.C.)” value with S. aureus 1840 was 3.13; with S. aureus 209P, 1.56; in the experiment on E. coli NIHJ JC-2 it was 0.2; in the experiment with E. coli T-7, 1.56; in the experiment with E. coli 0-111, 0.05; with K. pneumoniae DT it was 0.05. Moreover, the “minimal inhibitory concentration (M.I.C.)” value came out at 0.2 in the experiment on K. pneumoniae GN 3835; 6.25 with S. marcescens IFO 12648; 25 in the experiment on S. marcescens TN 24; 50 in the experiment on P. vulgaris GN 4413; 0.39 in the experiment with P. vulgaris IFO 3988; 0.1 in the experiment with P. mirabilis GN 4359. The “minimal inhibitory concentration (M.I.C.)” value in the experiment with P. morganii IFO 3168 is 3.13; with P. rettgeri GN4733, 0.1; with P. rettgeri TN 338 it was ≤ 0.012; in the experiment with E. cloacae TN 1282, 6.25; in the experiment with C. freundii GN 1706 it was 0.78; with C. freundii GN 99, 0.1.

Regarding `CCCNC(=O)O/N=C(\C(=O)NC1C(=O)N2C(C(=O)O)=C(CSc3nnnn3C)CSC12)c1csc(=N)[nH]1` (stereo not drawn) [Example II - 14], the “minimal inhibitory concentration (M.I.C.)” value in the experiment on S. aureus 1840 was 3.13; with S. aureus 209P it was 1.56; in the experiment on E. coli NIHJ JC-2, 0.39; in the experiment on E. coli T-7, 3.13; in the experiment with E. coli 0-111 it was 0.024; in the experiment with K. pneumoniae DT it was 0.1. Moreover, the “minimal inhibitory concentration (M.I.C.)” value with K. pneumoniae GN 3835 was 0.39; with S. marcescens IFO 12648, 3.13; in the experiment on S. marcescens TN 24 it was 3.13; with P. vulgaris GN 4413, 12.5; in the experiment on P. vulgaris IFO 3988, 0.1; in the experiment with P. mirabilis GN 4359, 0.39. For the same compound, the “minimal inhibitory concentration (M.I.C.)” value is 0.2 in the experiment with P. morganii IFO 3168; 0.2 in the experiment with P. rettgeri GN4733; ≤ 0.012 in the experiment with P. rettgeri TN 338; 3.13 with E. cloacae TN 1282; 0.39 in the experiment with C. freundii GN 1706; 0.2 in the experiment on C. freundii GN 99.

For `CCCNC(=O)O/N=C(\C(=O)NC1C(=O)N2C(C(=O)O)=C(C)CSC12)c1csc(=N)[nH]1` (stereo not drawn) [Example II - 15], the “minimal inhibitory concentration (M.I.C.)” value with S. aureus 1840 worked out at 12.5; with S. aureus 209P, 12.5; with E. coli NIHJ JC-2 it was 6.25; with E. coli T-7, 25; with E. coli 0-111 it was 3.13; in the experiment with K. pneumoniae DT, 3.13. Further, the “minimal inhibitory concentration (M.I.C.)” value in the experiment with K. pneumoniae GN 3835 was 6.25; in the experiment on S. marcescens IFO 12648, > 100; in the experiment on S. marcescens TN 24 it was > 100; with P. vulgaris GN 4413 it was 50; with P. vulgaris IFO 3988, 12.5; in the experiment on P. mirabilis GN 4359 it was 3.13. Also, the “minimal inhibitory concentration (M.I.C.)” value in the experiment on P. morganii IFO 3168 is 50; with P. rettgeri GN4733, 0.39; with P. rettgeri TN 338 it was 0.1; with E. cloacae TN 1282 it was > 100; in the experiment with C. freundii GN 1706 it was 12.5; with C. freundii GN 99, 12.5.

`CC(=O)OCC1=C(C(=O)O)N2C(=O)C(NC(=O)/C(=N\OC(=O)NC(C)C)c3csc(=N)[nH]3)C2SC1` (stereo not drawn) [Example II - 16]: the “minimal inhibitory concentration (M.I.C.)” value in the experiment on S. aureus 1840 was 3.13; with S. aureus 209P it was 1.56; in the experiment on E. coli NIHJ JC-2, 0.39; in the experiment with E. coli T-7 it was 3.13; in the experiment with E. coli 0-111 it was 0.024; with K. pneumoniae DT, 0.1. Moreover, the “minimal inhibitory concentration (M.I.C.)” value is 0.78 in the experiment on K. pneumoniae GN 3835; 6.25 in the experiment on S. marcescens IFO 12648; 25 in the experiment with S. marcescens TN 24; 25 with P. vulgaris GN 4413; 0.39 in the experiment on P. vulgaris IFO 3988; 0.1 in the experiment on P. mirabilis GN 4359. Besides, the “minimal inhibitory concentration (M.I.C.)” value with P. morganii IFO 3168 is reported as 0.78; with P. rettgeri GN4733, 0.2; in the experiment on P. rettgeri TN 338, ≤ 0.012; with E. cloacae TN 1282, 6.25; in the experiment on C. freundii GN 1706, 0.78; in the experiment on C. freundii GN 99, 0.39.

As to `CC(C)NC(=O)O/N=C(\C(=O)NC1C(=O)N2C(C(=O)O)=C(COC(N)=O)CSC12)c1csc(=N)[nH]1` (stereo not drawn) [Example II - 17], the “minimal inhibitory concentration (M.I.C.)” value in the experiment with S. aureus 1840 stood at 3.13; with S. aureus 209P, 1.56; with E. coli NIHJ JC-2, 0.39; with E. coli T-7, 3.13; with E. coli 0-111 it was 0.05; in the experiment with K. pneumoniae DT it was 0.1. The “minimal inhibitory concentration (M.I.C.)” value is on record as 0.39 in the experiment on K. pneumoniae GN 3835; 6.25 with S. marcescens IFO 12648; 25 in the experiment with S. marcescens TN 24; 100 in the experiment on P. vulgaris GN 4413; 0.39 with P. vulgaris IFO 3988; 0.1 in the experiment on P. mirabilis GN 4359. Further, the “minimal inhibitory concentration (M.I.C.)” value with P. morganii IFO 3168 is on record as 1.56; in the experiment with P. rettgeri GN4733, 0.1; in the experiment with P. rettgeri TN 338 it was ≤ 0.012; with E. cloacae TN 1282, 6.25; in the experiment on C. freundii GN 1706, 0.78; with C. freundii GN 99, 0.39.

In the case of `CC(C)NC(=O)O/N=C(\C(=O)NC1C(=O)N2C(C(=O)O)=C(CSc3nnnn3C)CSC12)c1csc(=N)[nH]1` (stereo not drawn) [Example II - 18], the “minimal inhibitory concentration (M.I.C.)” value is 3.13 in the experiment with S. aureus 1840; 1.56 with S. aureus 209P; 0.2 with E. coli NIHJ JC-2; 3.13 in the experiment on E. coli T-7; 0.024 in the experiment with E. coli 0-111; 0.1 with K. pneumoniae DT. In addition, the “minimal inhibitory concentration (M.I.C.)” value with K. pneumoniae GN 3835 amounted to 1.56; in the experiment with S. marcescens IFO 12648, 3.13; in the experiment with S. marcescens TN 24 it was 3.13; in the experiment with P. vulgaris GN 4413, 25; in the experiment with P. vulgaris IFO 3988 it was 0.1; in the experiment with P. mirabilis GN 4359, 0.39. In addition, the “minimal inhibitory concentration (M.I.C.)” value is given as 0.78 in the experiment on P. morganii IFO 3168; 0.2 with P. rettgeri GN4733; ≤ 0.012 in the experiment on P. rettgeri TN 338; 3.13 in the experiment on E. cloacae TN 1282; 0.78 in the experiment with C. freundii GN 1706; 0.39 with C. freundii GN 99.
